A short description of this experiment: Inhibition of rabbit recombinant GSK3-beta. The arrangement: species or system Oryctolagus cuniculus.

As a reminder, the IC50 is the concentration that gives 50% inhibition. For the compound `Cn1sc(NC(=O)c2ccccc2)nc1=O`, the half-inhibitory concentration (IC50) is over 100 µM.

As for `Cn1sc(N)nc1=O`, the IC50 amounted to 40 µM. In the case of `Cc1ccc(-c2nsc(=O)[nH]2)cc1`, the concentration for half-maximal inhibition (IC50) is over 100 µM. As for `O=C(Nc1nc(=O)n(Cc2ccccc2)s1)c1ccccc1`, the figure is over 100 µM. For `Nc1nc(=O)[nH]s1`, the IC50 worked out at 25 µM. As for `Cn1s/c(=N\C(=O)c2ccccc2)n(CC(=O)O)c1=O`, the figure is over 100 µM; as for `Cn1s/c(=N\Cc2ccccc2)n(Cc2ccccc2)c1=O`, over 100 µM. As for `O=C(/N=c1\s[nH]c(=O)n1Cc1ccccc1)c1ccccc1`, the figure is over 100 µM.

As to `Cn1sc(NCC(=O)O)nc1=O`, the IC50 turned out to be 75 µM.

In the case of `O=C(Nc1nc(=O)[nH]s1)c1ccccc1`, the IC50 was over 100 µM. The same measure for `O=C(O)Cn1c(=O)n(Cc2ccccc2)s/c1=N\C(=O)c1ccccc1`: over 100 µM. The same measure for `Cc1ccccc1-c1nsc(=O)[nH]1`: over 100 µM. On to `Cn1s/c(=N\C(=O)c2ccccc2)n(Cc2ccccc2)c1=O`, for which the IC50 is over 100 µM. The same measure for `Cc1ccc(-c2nsc(S(=O)(=O)c3ccc(C)cc3)n2)cc1`: over 100 µM.

For the compound `N#CCn1s/c(=N\C(=O)c2ccccc2)n(CC#N)c1=O`, the IC50 is over 100 µM. As for `O=c1nc(NCc2ccccc2)s[nH]1`, the figure is 6.5 µM.

As to `CCOC(=O)c1nc(-c2ccc(Cl)cc2)ns1`, the half-inhibitory concentration (IC50) is over 100 µM. The same measure for `CCOC(=O)Cn1c(=O)n(C)s/c1=N\C(=O)c1ccccc1`: over 100 µM.

On to `Cn1sc(NCCc2ccccc2)nc1=O`, for which the IC50 is 15 µM. For the compound `CCOC(=O)Nc1nc(=O)n(C)s1`, the IC50 is over 100 µM.

Take `O=c1nc(NCc2ccccc2)sn1Cc1ccccc1`: the IC50 was over 100 µM. As for `Cn1sc(NCCO)nc1=O`, the IC50 is over 100 µM. With `CCOC(=O)c1nc(-c2ccccc2)ns1`, the IC50 was over 100 µM.

As for `CCOC(=O)c1nc(-c2cc(C(C)(C)C)c(O)c(C(C)(C)C)c2)ns1`, the IC50 is over 100 µM. The same measure for `Cn1s/c(=N\c2ccc(Br)cc2)n(C)c1=O`: over 100 µM; for `Cn1sc(Nc2ccccc2)nc1=O`: 12.5 µM; for `Cn1s/c(=N\C(=O)c2ccccc2)n(C)c1=O`: over 100 µM. As for `CCOC(=O)Cn1c(-c2ccc(C)cc2)nsc1=O`, the figure is over 100 µM. Consider `c1ccc(-c2nsc(-c3ccccc3)n2)cc1`, for which the IC50 is over 100 µM.

With `Cn1sc(Nc2ccc(Br)cc2)nc1=O`, the IC50 came to 15 µM. As for `O=C(/N=c1\sn(Cc2ccccc2)c(=O)n1Cc1ccccc1)c1ccccc1`, the figure is over 100 µM; as for `CNc1nc(=O)n(C)s1`, 18 µM; as for `CC(=O)Nc1nsc(NC(C)=O)n1`, over 100 µM. The same measure for `c1ccc(Nc2nsc(Nc3ccccc3)n2)cc1`: over 100 µM; for `CCOC(=O)c1nsc(-c2ccccc2)n1`: over 100 µM.

Turning to `CCNc1nsc(NCC)n1`, the concentration for half-maximal inhibition (IC50) is over 100 µM. As for `ClCc1nc(-c2ccccc2)ns1`, the figure is over 100 µM; as for `CCOC(=O)c1nc(-c2ccc([N+](=O)[O-])cc2)ns1`, over 100 µM; as for `CCOC(=O)CNc1nc(=O)n(C)s1`, 20 µM. The same measure for `CCOC(=O)Cn1c(=O)n(Cc2ccccc2)s/c1=N\C(=O)c1ccccc1`: over 100 µM; for `c1cc(Nc2nsc(Nc3ccncc3)n2)ccn1`: over 100 µM; for `N#CCn1c(=O)[nH]s/c1=N\C(=O)c1ccccc1`: over 100 µM. As for `Cn1sc(NCc2ccccc2)nc1=O`, the figure is 20 µM; as for `CCOC(=O)Cn1c(=O)n(C)s/c1=N\Cc1ccccc1`, over 100 µM; as for `Cn1s/c(=N\C(=O)c2ccccc2)n(CC#N)c1=O`, over 100 µM.

As to `CCOC(=O)c1nc(-c2ccc(OC)cc2)ns1`, the 50% inhibitory concentration (IC50) was over 100 µM.

(Values after ChEMBL document CHEMBL1144671, “Non-ATP competitive glycogen synthase kinase 3beta (GSK-3beta) inhibitors: study of structural requirements for thiadiazolidinone derivatives” (Bioorg Med Chem, 2008).)
